# Experimental data taken from the supplement of paper PMC10307832.
# Legend:
# Assay in all cases: relative viability (nuclei count vs DMSO), 5 days (fraction); higher = more cells survive
# Linifanib + Dasatinib = compound: Cc1ccc(F)c(NC(=O)Nc2ccc(-c3cccc4[nH]nc(N)c34)cc2)c1 [Linifanib] + Cc1nc(Nc2ncc(C(=O)Nc3c(C)cccc3Cl)s2)cc(N2CCN(CCO)CC2)n1 [Dasatinib] (partner 0.075 µM)
# Procedure, shortened: (§1)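 One day after seeding in 1536-well plates, lung cancer cell lines were dosed by pin tool. Dosing was either single-drug or a fixed anchor-drug dose plus five library-drug doses (not always all listed) in √10 steps. After 5 days, nuclei were stained in one fix-and-stain step and counted on 4× images, and relative viability is the nuclei count of treated wells over that of vehicle wells, given as the median of duplicate plates.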
# Linifanib + Pictilisib = compound: Cc1ccc(F)c(NC(=O)Nc2ccc(-c3cccc4[nH]nc(N)c34)cc2)c1 [Linifanib] + CS(=O)(=O)N1CCN(Cc2cc3nc(-c4cccc5[nH]ncc45)nc(N4CCOCC4)c3s2)CC1 [Pictilisib] (partner 1 µM)
# Procedure, shortened: as §1
# Linifanib + Trametinib = compound: Cc1ccc(F)c(NC(=O)Nc2ccc(-c3cccc4[nH]nc(N)c34)cc2)c1 [Linifanib] + CC(=O)Nc1cccc(-n2c(=O)n(C3CC3)c(=O)c3c(Nc4ccc(I)cc4F)n(C)c(=O)c(C)c32)c1 [Trametinib] (partner 0.02 µM)
# Procedure, shortened: as §1
# Linifanib + Palbociclib = compound: Cc1ccc(F)c(NC(=O)Nc2ccc(-c3cccc4[nH]nc(N)c34)cc2)c1 [Linifanib] + CC(=O)c1c(C)c2cnc(Nc3ccc(N4CCNCC4)cn3)nc2n(C2CCCC2)c1=O [Palbociclib] (partner 0.5 µM)
# Procedure, shortened: as §1
# Linifanib + Alpelisib = compound: Cc1ccc(F)c(NC(=O)Nc2ccc(-c3cccc4[nH]nc(N)c34)cc2)c1 [Linifanib] + Cc1nc(NC(=O)N2CCC[C@H]2C(N)=O)sc1-c1ccnc(C(C)(C)C(F)(F)F)c1 [Alpelisib] (partner 2 µM)
# Procedure, shortened: as §1
# Linifanib + Lapatinib = compound: Cc1ccc(F)c(NC(=O)Nc2ccc(-c3cccc4[nH]nc(N)c34)cc2)c1 [Linifanib] + CS(=O)(=O)CCNCc1ccc(-c2ccc3ncnc(Nc4ccc(OCc5cccc(F)c5)c(Cl)c4)c3c2)o1 [Lapatinib] (partner 2 µM)
# Procedure, shortened: as §1
Cell Line,relative viability (Linifanib + Dasatinib; first compound 0.03162 µM),relative viability (Linifanib + Dasatinib; first compound 0.1 µM),relative viability (Linifanib + Dasatinib; first compound 0.3162 µM),relative viability (Linifanib + Pictilisib; first compound 0.03162 µM),relative viability (Linifanib + Pictilisib; first compound 0.1 µM),relative viability (Linifanib + Pictilisib; first compound 0.3162 µM),relative viability (Linifanib + Trametinib; first compound 0.03162 µM),relative viability (Linifanib + Trametinib; first compound 0.1 µM),relative viability (Linifanib + Trametinib; first compound 0.3162 µM),relative viability (Linifanib + Palbociclib; first compound 0.03162 µM),relative viability (Linifanib + Palbociclib; first compound 0.1 µM),relative viability (Linifanib + Palbociclib; first compound 0.3162 µM),relative viability (Linifanib + Alpelisib; first compound 0.03162 µM),relative viability (Linifanib + Alpelisib; first compound 0.1 µM),relative viability (Linifanib + Alpelisib; first compound 0.3162 µM),relative viability (Linifanib + Lapatinib; first compound 0.03162 µM),relative viability (Linifanib + Lapatinib; first compound 0.1 µM),relative viability (Linifanib + Lapatinib; first compound 0.3162 µM)
PC-14,0.259,0.262,0.266,0.617,0.823,0.682,0.689,0.715,0.666,0.444,0.584,0.463,0.907,0.958,0.88,0.32,0.436,0.305
NCI-H2228,0.541,0.556,0.538,0.415,0.64,0.386,0.511,0.719,0.587,0.803,0.85,0.818,0.821,0.827,0.843,0.998,1.3,0.922
HCC-44,,,,0.605,0.674,0.595,1.05,1.07,1.03,0.996,0.955,1.01,0.82,0.824,0.793,1.04,1,0.989
NCI-H727,0.449,0.344,0.521,0.3,0.431,0.385,0.396,0.418,0.388,0.596,0.67,0.651,0.613,0.6,0.483,0.781,1.05,0.716
NCI-H520,0.19,0.206,0.208,0.29,0.304,0.315,0.673,0.803,0.731,0.22,0.216,0.238,0.789,0.801,0.794,1,1.03,0.895
NCI-H2347,0.356,0.399,0.284,0.863,0.987,0.817,0.283,0.292,0.264,0.462,0.441,0.404,1.07,1.05,1.08,0.955,0.927,0.909
NCI-H647,0.194,0.231,0.183,0.313,0.512,0.417,0.567,0.526,0.588,0.342,0.506,0.484,1.07,1.21,0.963,1.22,1.29,1.01
NCI-H2342,0.333,0.331,0.332,,,,0.848,0.744,0.878,0.594,0.562,0.481,,,,,,
LXF-289,0.29,0.288,0.236,0.849,0.874,0.784,0.749,0.695,0.624,0.668,0.612,0.564,1.11,1.04,1.02,0.914,0.936,0.831
